The supplement of paper PMC10307832

Legend:
Test in all cases: relative viability (nuclei count vs DMSO), 5 days (fraction); higher = more cells survive
Doramapimod + Olaparib = compound: Cc1ccc(-n2nc(C(C)(C)C)cc2NC(=O)Nc2ccc(OCCN3CCOCC3)c3ccccc23)cc1 [Doramapimod] + O=C(c1cc(Cc2n[nH]c(=O)c3ccccc23)ccc1F)N1CCN(C(=O)C2CC2)CC1 [Olaparib] (partner 8 µM)
Method in brief: (§1)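 Each reported value is a median over duplicate plates. It expresses relative viability: treated-well nuclei count divided by vehicle-well nuclei count. Lung cancer cell lines in 1536-well plates were dosed by pin tool a day after seeding, alone with one drug or with a fixed anchor-drug dose plus five library-drug doses (not always all listed) in √10 steps, and nuclei were counted after 5 days.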

Doramapimod + Lapatinib = compound: Cc1ccc(-n2nc(C(C)(C)C)cc2NC(=O)Nc2ccc(OCCN3CCOCC3)c3ccccc23)cc1 [Doramapimod] + CS(=O)(=O)CCNCc1ccc(-c2ccc3ncnc(Nc4ccc(OCc5cccc(F)c5)c(Cl)c4)c3c2)o1 [Lapatinib] (partner 2 µM)
Method in brief: as §1

IPA-3 + Pictilisib = compound: C1=CC=C2C(=C1)C=CC(=C2SSC3=C(C=CC4=CC=CC=C43)O)O [IPA-3] + CS(=O)(=O)N1CCN(Cc2cc3nc(-c4cccc5[nH]ncc45)nc(N4CCOCC4)c3s2)CC1 [Pictilisib] (partner 1 µM)
Method in brief: as §1

IPA-3 + Palbociclib = compound: C1=CC=C2C(=C1)C=CC(=C2SSC3=C(C=CC4=CC=CC=C43)O)O [IPA-3] + CC(=O)c1c(C)c2cnc(Nc3ccc(N4CCNCC4)cn3)nc2n(C2CCCC2)c1=O [Palbociclib] (partner 0.5 µM)
Method in brief: as §1

Cell Line | relative viability (Doramapimod + Olaparib; first compound 0.02 µM) | relative viability (Doramapimod + Olaparib; first compound 0.06325 µM) | relative viability (Doramapimod + Olaparib; first compound 0.2 µM) | relative viability (Doramapimod + Olaparib; first compound 0.6325 µM) | relative viability (Doramapimod + Olaparib; first compound 2 µM) | relative viability (Doramapimod + Lapatinib; first compound 0.02 µM) | relative viability (Doramapimod + Lapatinib; first compound 0.06325 µM) | relative viability (Doramapimod + Lapatinib; first compound 0.2 µM) | relative viability (Doramapimod + Lapatinib; first compound 0.6325 µM) | relative viability (Doramapimod + Lapatinib; first compound 2 µM) | relative viability (IPA-3 + Pictilisib; first compound 0.2 µM) | relative viability (IPA-3 + Pictilisib; first compound 0.6325 µM) | relative viability (IPA-3 + Pictilisib; first compound 2 µM) | relative viability (IPA-3 + Pictilisib; first compound 6.325 µM) | relative viability (IPA-3 + Pictilisib; first compound 20 µM) | relative viability (IPA-3 + Palbociclib; first compound 0.2 µM) | relative viability (IPA-3 + Palbociclib; first compound 0.6325 µM) | relative viability (IPA-3 + Palbociclib; first compound 2 µM) | relative viability (IPA-3 + Palbociclib; first compound 6.325 µM) | relative viability (IPA-3 + Palbociclib; first compound 20 µM)
NCI-H1792 | 0.408 | 0.459 | 0.457 | 0.486 | 0.268 | 0.898 | 0.986 | 0.909 | 0.859 | 0.858 | 0.258 | 0.285 | 0.25 | 0.272 | 0.325 | 0.684 | 0.658 | 0.662 | 0.677 | 0.731
RERF-LC-KJ | 0.916 | 0.864 | 1.08 | 1.01 | 0.887 | 0.983 | 0.946 | 0.879 | 0.908 | 0.814 | 0.626 | 0.501 | 0.537 | 0.38 | 0.486 | 1.19 | 1.04 | 1.08 | 1.16 | 0.826
NCI-H322M | 0.849 | 0.827 | 0.864 | 0.857 | 0.884 | 0.59 | 0.601 | 0.644 | 0.798 | 0.605 | 0.501 | 0.272 | 0.508 | 0.481 | 0.572 | 0.48 | 0.452 | 0.433 | 0.525 | 0.514
COR-L 105 | 0.59 | 0.727 | 0.707 | 0.824 | 0.602 | 0.368 | 0.385 | 0.37 | 0.336 | 0.367 | 0.465 | 0.422 | 0.393 | 0.416 | 0.351 | 0.409 | 0.275 | 0.405 | 0.393 | 0.399
NCI-H1993 | 0.983 | 0.908 | 1.14 | 1.07 | 0.794 | 0.792 | 0.728 | 0.774 | 1.03 | 0.877 | 0.735 | 0.742 | 0.969 | 0.681 | 1.04 | 0.702 | 0.732 | 0.656 | 0.516 | 0.545
NCI-H1437 | 0.645 | 0.641 | 0.654 | 0.657 | 0.637 | 0.805 | 0.905 | 0.837 | 0.898 | 0.723 | 0.562 | 0.486 | 0.458 | 0.61 | 0.616 | 0.409 | 0.359 | 0.317 | 0.291 | 0.285
NCI-H838 | 0.794 | 0.833 | 0.811 | 0.873 | 0.737 | 0.982 | 0.996 | 1.19 | 1.27 | 0.843 | 0.533 | 0.455 | 0.451 | 0.463 | 0.337 | 0.278 | 0.202 | 0.209 | 0.225 | 0.204
NCI-H1666 | 0.844 | 0.743 | 0.751 | 0.775 | 0.748 | 0.814 | 0.702 | 0.654 | 0.637 | 0.68 | 0.541 | 0.521 | 0.445 | 0.403 | 0.541 | 0.643 | 0.672 | 0.624 | 0.616 | 0.658
